Data as given in the supplement of paper PMC10307832.

What was measured:
Assay in all cases: relative viability (nuclei count vs DMSO), 5 days (fraction); higher = more cells survive
[1] = compound: CC1=CN2C(=O)C=C(N=C2C(=C1)C(C)NC3=CC=CC=C3)N4CCOCC4 [TGX 221] + Cc1nc(NC(=O)N2CCC[C@H]2C(N)=O)sc1-c1ccnc(C(C)(C)C(F)(F)F)c1 [Alpelisib] (partner 2 µM)
In short: (§1)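 For relative viability, nuclei counts in treated wells were divided by those in vehicle wells. Lung cancer cell lines had been pin-tool dosed in 1536-well plates the day after seeding and cultured for 5 days, then fixed and stained in one step (final 0.05% Triton X-100, 1% formaldehyde, 1 ug/ml Hoechst) and imaged at 4×. Doses were one drug alone or a fixed anchor-drug dose plus five library-drug doses (not always all listed) in √10 steps, and values are duplicate-plate medians.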

[2] = compound: C1=CC=C(C(=C1)C2=CC=C(C=C2)C3=CSC4=C3C(=C(C(=O)N4)C#N)O)O + CS(=O)(=O)N1CCN(Cc2cc3nc(-c4cccc5[nH]ncc45)nc(N4CCOCC4)c3s2)CC1 [Pictilisib] (partner 1 µM)
In short: as §1

[3] = compound: O=C(CCCCCCNC(=O)c1cnc(N(c2ccccc2)c2ccccc2)nc1)NO [Ricolinostat] + N=C(N)NC(=N)NCCc1ccccc1 [Phenformin] (partner 250 µM)
In short: as §1

[4] = compound: C1=CC=C(C(=C1)C2=CC=C(C=C2)C3=CSC4=C3C(=C(C(=O)N4)C#N)O)O + CC(=O)Nc1cccc(-n2c(=O)n(C3CC3)c(=O)c3c(Nc4ccc(I)cc4F)n(C)c(=O)c(C)c32)c1 [Trametinib] (partner 0.02 µM)
In short: as §1

| Cell Line | relative viability ([1]; first compound 0.08 µM) | relative viability ([1]; first compound 0.253 µM) | relative viability ([1]; first compound 0.8 µM) | relative viability ([1]; first compound 2.53 µM) | relative viability ([1]; first compound 8 µM) | relative viability ([2]; first compound 0.08 µM) | relative viability ([2]; first compound 0.253 µM) | relative viability ([2]; first compound 0.8 µM) | relative viability ([2]; first compound 2.53 µM) | relative viability ([2]; first compound 8 µM) | relative viability ([3]; first compound 0.08 µM) | relative viability ([3]; first compound 0.253 µM) | relative viability ([3]; first compound 0.8 µM) | relative viability ([3]; first compound 2.53 µM) | relative viability ([4]; first compound 0.08 µM) | relative viability ([4]; first compound 0.253 µM) | relative viability ([4]; first compound 0.8 µM) | relative viability ([4]; first compound 2.53 µM) | relative viability ([4]; first compound 8 µM) |
| --- | --- | --- | --- | --- | --- | --- | --- | --- | --- | --- | --- | --- | --- | --- | --- | --- | --- | --- | --- |
| NCI-H2347 | 0.994 | 0.911 | 0.955 | 0.605 | 0.756 | 0.624 | 0.609 | 0.496 | 0.626 | 0.454 | 0.295 | 0.32 | 0.337 | 0.302 | 0.287 | 0.304 | 0.243 | 0.255 | 0.286 |
| NCI-H2405 | 0.586 | 0.615 | 0.582 | 0.531 | 0.463 | 0.379 | 0.439 | 0.443 | 0.436 | 0.295 | 0.356 | 0.44 | 0.416 | 0.358 | 0.55 | – | 0.639 | 0.601 | 0.574 |
| NCI-H3122 | 0.758 | 0.735 | 0.717 | 0.681 | 0.787 | 0.6 | 0.666 | 0.676 | 0.682 | 0.662 | – | 0.378 | 0.369 | 0.318 | 0.289 | 0.233 | 0.223 | 0.253 | 0.295 |
| PC-3 [JPC-3] | 1.01 | 0.978 | 1 | 0.929 | 0.894 | 0.69 | 0.888 | 0.665 | 0.685 | 0.652 | – | 0.472 | 0.488 | 0.475 | 0.756 | 0.789 | 0.683 | 0.701 | 0.692 |
| PC-14 | 1.01 | 0.822 | 0.817 | 0.919 | 0.857 | 0.604 | 0.674 | 0.658 | 0.797 | 0.52 | 0.364 | 0.532 | 0.477 | 0.37 | 0.758 | 0.925 | 0.912 | 0.792 | 0.623 |
| RERF-LC-KJ | 0.66 | 0.713 | 0.603 | 0.644 | 0.637 | 0.576 | 0.538 | 0.567 | 0.466 | 0.493 | 0.452 | 0.372 | 0.406 | 0.374 | 0.988 | 0.908 | 0.917 | 0.878 | 0.834 |
| SK-LU-1 | 0.948 | 0.788 | 0.903 | 0.9 | 0.731 | 0.426 | 0.532 | 0.57 | 0.61 | 0.508 | 0.449 | 0.666 | 0.565 | 0.395 | 0.412 | 0.408 | 0.505 | 0.476 | 0.426 |
| SK-MES-1 | 0.843 | 0.628 | 0.785 | 0.549 | 0.476 | 0.33 | 0.368 | 0.354 | 0.284 | 0.307 | 0.597 | 0.599 | 0.678 | 0.672 | 0.588 | 0.625 | 0.582 | 0.554 | 0.551 |
| SW 1573 | 0.63 | 0.495 | 0.577 | 0.433 | 0.393 | 0.475 | 0.571 | 0.54 | 0.458 | 0.37 | 0.316 | 0.393 | 0.474 | 0.551 | 0.608 | 0.522 | 0.654 | 0.659 | 0.434 |
| UMC-11 | 0.955 | 0.961 | 0.966 | 1.03 | 1.06 | 0.695 | 0.717 | 0.855 | 0.829 | 0.778 | 0.273 | 0.344 | 0.271 | 0.194 | – | 0.649 | 0.695 | 0.658 | 0.551 |
